Reference: patent US7138122B2, “Therapeutic systems” (Enzacta R & D Limited, priority 1997, dated 2006)

Assays:
E. coli nitroreductase = E. coli nitroreductase (Escherichia coli, UniProt P38489); conditions: with respect to CB 1954; NADH as co-substrate; cited from earlier work
Rat DT-diaphorase = target: T1, Rat DT-diaphorase (Rattus norvegicus, UniProt P05982); conditions: with respect to CB 1954; NADH as co-substrate; cited from earlier work
T1 sequence (P05982 2-274 limits assumed): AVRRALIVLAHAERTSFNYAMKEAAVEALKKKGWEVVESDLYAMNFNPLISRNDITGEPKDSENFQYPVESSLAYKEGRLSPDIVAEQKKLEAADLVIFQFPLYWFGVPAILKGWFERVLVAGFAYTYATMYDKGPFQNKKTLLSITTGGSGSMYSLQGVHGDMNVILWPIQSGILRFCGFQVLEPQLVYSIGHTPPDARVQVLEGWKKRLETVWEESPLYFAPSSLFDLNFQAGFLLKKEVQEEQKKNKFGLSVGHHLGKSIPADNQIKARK

Human DT-diaphorase = Human DT-diaphorase (Homo sapiens, UniProt P15559); conditions: with respect to CB 1954; NADH as co-substrate; cited from earlier work
Human DT-diaphorase, sequence (P15559 whole entry): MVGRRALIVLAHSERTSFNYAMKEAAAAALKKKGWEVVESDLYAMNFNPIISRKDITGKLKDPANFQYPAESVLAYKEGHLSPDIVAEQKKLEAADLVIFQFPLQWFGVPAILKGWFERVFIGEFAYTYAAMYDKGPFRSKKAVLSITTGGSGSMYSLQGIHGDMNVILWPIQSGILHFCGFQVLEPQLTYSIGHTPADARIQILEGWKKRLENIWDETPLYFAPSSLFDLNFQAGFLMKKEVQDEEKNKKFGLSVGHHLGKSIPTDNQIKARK

[1] = tested on: human T98G gliobastoma cells; assay: Cytotoxicity of CB 1954 on T98G glioblastoma cells with NQO2 co-substrates; conditions: no co-substrate
Experimental: Cells in exponential phase of growth were trypsinised, seeded in 96 well plates at a density of 5×10^4 cells per well (100 μl) and permitted to recover for 24 hours. Then 50 μl of medium was removed and replaced with 50 μl of fresh medium containing 200 μM NRH to give a final concentration of 100 μM. Serial dilutions of CB 1954 (8 of 3.66×) were performed in situ giving final concentrations of 1000–0.46 μM. Cells were then incubated with drug for 72 hours at 37° C. The plates were fixed and stained with sulforhodamine-B; the absorption at 590 nm read and results were expressed as percentage of control growth. The IC50 values were evaluated by interpolation.
The cells were treated as for V79 cells but were treated for 144 hr in presence of CB 1954.

[2] = tested on: NQO2 expressing V79 cells; assay: Cytotoxicity of CB 1954 with NRH in NQO2-transfected V79 cells; assay type: cell-based, Chinese hamster; conditions: 100 μM NRH added, 72 hours
Experimental: Transfection quality H6 DNA was prepared using the QIAGEN endotoxin-free maxiprep kit. Chinese hamster lung embryo fibroblasts (V79) were transfected with the purified H6 using DOTAP liposomal reagent according to the manufacturer's instructions (Boehringer Mannheim). Two days after transfection puromycin-resistant clones were selected in DMEM/10% FCS containing 10 μg/ml puromycin (Sigma) and grown on to establish cell lines designated V79TM1, 5, 3, 7, 9, 11 and 13 respectively and maintained in selective medium.

[3] = tested on: non-transfected V79 cells; assay: Cytotoxicity of CB 1954 with NRH in non-transfected V79 cells; assay type: cell-based, Chinese hamster; conditions: 100 μM NRH added, 72 hours
NQO2 = target: T2, NQO2 (Homo sapiens, UniProt P16083); assay: Co-substrate activity with NQO2 for reduction of CB 1954 (HPLC); assay type: biochemical; set-up: restriction site were added to the 5′ and 3′-ends of the full-length NQO2 cDNA; made in house; host or cells: E. coli (expression vector pKK233-2, plasmid pKK-hNQO2)
T2 sequence (P16083 1-231): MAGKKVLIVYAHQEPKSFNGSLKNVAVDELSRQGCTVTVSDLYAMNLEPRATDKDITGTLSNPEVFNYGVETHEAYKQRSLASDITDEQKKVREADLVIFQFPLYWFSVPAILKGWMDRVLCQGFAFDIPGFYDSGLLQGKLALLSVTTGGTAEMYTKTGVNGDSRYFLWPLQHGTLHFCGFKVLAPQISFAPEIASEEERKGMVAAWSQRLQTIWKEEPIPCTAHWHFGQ
Experimental: The effect of various co-substrates on CB 1954 was determined as above but NADH. NADPH or NMNH was substituted for the NRH and CB 1954 was used at a fixed concentration of 100 μM. The enzyme concentration was 5 μg/ml. The reduction of CB 1954 was monitored by measuring both the decrease in its corresponding peak area on the HPLC trace and the increase in the area of the peak corresponding to the reduction product 5-(aziridin-1-yl)-4-hydroxylamino-2-nitrobenzamide. The relative rates of reduction were determined at 10% reduction of CB1954 from a graph plotting CB 1954 reduction against time. The time axis was normalised to the equivalent of 10 μg/ml of NQO2.
The activity of various potential co-substrates was determined by HPLC analysis in the presence of CB1954 and NQO2. To determine the kinetic parameters NQO2 (1 μg/ml) was incubated with NRH (5000 μM) and CB1954 at different concentrations (0.1 to 2 mM) in sodium phosphate buffer (10MM, pH 7) at 37° C. At various times, aliquots (10 μl) were injected onto a Partisphere SCX (250×4.5 mm) HPLC column (Whatman Ltd) and eluted isocratically (1.5 ml/min) with 50 mM aqueous sodium phosphate containing 1% methanol. The eluate was continuously monitored for absorption at 320 nm. […] The reduction of CB1954 was monitored by quantifying the increase in the area of the peak corresponding to the reduction product 5-(aziridin-1-yl)-4-hydroxylamino-2-nitrobenzamide. All the assays were initiated by addition of the enzyme and performed in duplicate. The kinetic parameters were calculated by plotting the initial rate of reduction at each concentration of CB1954 against that concentration and fitting the data to the Michaelis-Menton equation using a computer programme (Fig P). Values were confirmed by transforming the data and fitting it to various linear forms of the equation by regression analysis.
The effect of various co-substrates on CB1954 reduction was determined as above but the co-substrate was substituted for the NRH and C1954 was used at a fixed concentration of 100 μM. The enzyme concentration was 1 or 5 μg/ml. The reduction of CB1954 was monitored by measuring both the decrease in its corresponding peak area on the HPLC trace and the increase in the area of the peak corresponding to the reduction product 5-(aziridin-1-yl)-4-hydroxylamino-2-nitrobenzamide. The relative rates of reduction were determined at 10% reduction of CB1954 from a graph plotting CB1954 reduction against time. The time axis was normalised to the equivalent of 10 μg/ml of NQO2. The kinetic parameters of NQO2 for the various co-substrates was determined as for CB1954 except that the initial concentration of CB1954 was constant at 100 μm whilst that of the co-substrate was varied from 0 to 2 mM. The enzyme concentration was 0.5 μg/ml.

E. coli nitroreductase, sequence (P38489 whole entry): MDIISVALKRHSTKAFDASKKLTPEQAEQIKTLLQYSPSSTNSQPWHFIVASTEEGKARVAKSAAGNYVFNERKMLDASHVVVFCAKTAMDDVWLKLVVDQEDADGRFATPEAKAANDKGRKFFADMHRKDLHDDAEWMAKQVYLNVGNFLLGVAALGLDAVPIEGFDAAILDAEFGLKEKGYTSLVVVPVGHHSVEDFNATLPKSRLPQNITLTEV

SMILES | kcat (E. coli nitroreductase) | Km (Rat DT-diaphorase) | kcat (Rat DT-diaphorase) | Km (Human DT-diaphorase) | kcat (Human DT-diaphorase) | toxicity of CB1954 alone [1] | increase of the cytotoxicity of CB 1954 ([2]; V79TM5 and 13 cell lines) | increase of the cytotoxicity of CB 1954 ([2]; V79TM13 cells) | increase of the cytotoxicity of CB 1954 [3] | RELATIVE RATE OF REDUCTION (NQO2; CB 1954 reduction by NQO2, co-substrate initial 500 μM, CB 1954 initial 100 μM) | Km (NQO2; of NQO2 for the co-substrate, CB1954 as electron acceptor (100 μM)) | kcat (NQO2; of NQO2 with the co-substrate, CB1954 as electron acceptor)
NC(=O)c1cc(N2CC2)c([N+](=O)[O-])cc1[N+](=O)[O-] [CB 1954, 5-(aziridin-1-yl)-2,4-dinitrobenzamide] | 6.0 s⁻¹ | 826 µM | 0.0683 s⁻¹ | 1400 µM | 0.0107 s⁻¹ | not toxic | – | – | – | – | – | –
NC(=O)C1=CN([C@@H]2O[C@H](CO)[C@@H](O)[C@H]2O)C=CC1 [NRH, dihydronicotinamide riboside] | – | – | – | – | – | – | greater than 100 fold | at least 100 fold | < 3 fold | 70.0 | 28 ± 2 µM | 6 s⁻¹
